Laboratory results from US10760052B2, “Method of inhibiting tau phosphorylation” (priority 2012, dated 2020).
Read-outs that look alike come from different tables or passages of the source.

Target: T1, mu opiate receptor (MOR) (Rattus norvegicus, UniProt P33535)
T1 construct: from tissue; host or cells: striatum (membrane preparation)
Type: biochemical
Details: for Concentration of FLNA-Binding Compound as Agonist 0.1 μM / Concentration of FLNA-Binding Compound as Agonist 1 μM / Concentration of FLNA-Binding Compound as Agonist 1 μM + BFNA: [35S]GTPγS binding to Gαo in striatal membranes; for Concentration of FLNA-Binding Compound as Agonist 0.1 μM: compound 0.1 μM; for Concentration of FLNA-Binding Compound as Agonist 1 μM: compound 1 μM; for Concentration of FLNA-Binding Compound as Agonist 1 μM + BFNA: compound 1 μM plus 1 μM β-funaltrexamine (MOR antagonist)

[1] = 0.1 μM compound, striatal membranes, Series C-2
[2] = 1 μM compound + 1 μM β-FNA (selective MOR antagonist), Series C-2
[3] = 1 μM compound, striatal membranes, Series C-2

T1 sequence (P33535 whole entry): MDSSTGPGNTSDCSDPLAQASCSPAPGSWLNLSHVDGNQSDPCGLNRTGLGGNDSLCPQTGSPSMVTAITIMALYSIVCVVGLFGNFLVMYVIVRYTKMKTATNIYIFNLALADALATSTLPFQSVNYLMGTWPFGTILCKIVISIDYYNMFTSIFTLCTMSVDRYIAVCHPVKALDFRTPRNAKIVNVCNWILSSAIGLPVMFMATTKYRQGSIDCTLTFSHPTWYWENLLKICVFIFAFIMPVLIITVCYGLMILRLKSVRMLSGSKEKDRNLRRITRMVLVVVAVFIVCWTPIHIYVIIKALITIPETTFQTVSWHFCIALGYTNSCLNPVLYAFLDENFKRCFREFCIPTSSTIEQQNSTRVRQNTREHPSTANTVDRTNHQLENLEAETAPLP

SMILES	% DAMGO (0.1 μM) [%]	% DAMGO (1 μM) [%]	% DAMGO + BFNA [%]	Concentration of FLNA-Binding Compound as Agonist 0.1 μM [%]	Concentration of FLNA-Binding Compound as Agonist 1 μM [%]	Concentration of FLNA-Binding Compound as Agonist 1 μM + BFNA [%]	[35S]GTPγS binding, FLNA-Binding Compound as Agonist at 0.1 μM [1] [%]	[35S]GTPγS binding, FLNA-Binding Compound as Agonist at 1 μM + BFNA [2] [%]	[35S]GTPγS binding, FLNA-Binding Compound as Agonist at 1 μM [3] [%]	[35S]GTPγS binding, FLNA-Binding Compound as Agonist at 0.1 μM [%]	[35S]GTPγS binding, FLNA-Binding Compound as Agonist at 1 μM [%]	[35S]GTPγS binding, FLNA-Binding Compound as Agonist at 1 μM + BFNA [%]
COc1ccc(S(=O)(=O)N2CCC3(CC2)OCCN3S(=O)(=O)c2ccc(OC)c(OC)c2)cc1OC [Compound C0049]	73.5	90.1	184.1	106.6	210.0	81.0						
CC(=O)N1CCSC12CCN(S(=O)(=O)c1ccc([N+](=O)[O-])cc1)CC2 [Compound C0050]	76.1	54.8	134.1				110.3	59.0	127.6			
CC(O)c1ccc(S(=O)(=O)N2CCC3(CC2)OCCN3S(=O)(=O)c2ccc(C(C)O)cc2)cc1 (stereo not drawn) [Compound C0051]	65.1	73.1	127.0	94.4	170.4	55.9						
CC(=O)c1ccc(C(=O)N2CCC3(CC2)OCCN3S(=O)(=O)c2ccc(C(C)=O)cc2)cc1 [Compound C0052]	74.8	69.9	97.0	108.4	162.8	42.7						
CC(=O)c1ccc(C(=O)N2CCOC23CCN(S(=O)(=O)c2ccc(C(C)=O)cc2)CC3)cc1 [Compound C0053]	71.7	67.5	211.6	104.0	157.2	93.1						
CC(=O)c1ccc(C(=O)N2CCC3(CC2)OCCN3C(=O)c2ccc(C(C)=O)cc2)cc1 [Compound C0054]	47.0	54.5	98.9	68.2	127.0	43.5						
CC(=O)c1ccc(S(=O)(=O)N2CCC3(CC2)OCCN3S(C)(=O)=O)cc1 [Compound C0056]	68.0	83.0	196.1				98.6	86.3	193.4			
CC(=O)c1ccc(S(=O)(=O)N2CCC3(CC2)NCCS3)cc1 [Compound C0060]	114.8	93.9	327.0				166.5	143.9	218.9			
COc1cc(S(=O)(=O)N2CCC3(CC2)OCCN3S(=O)(=O)c2cc(OC)c(OC)c(OC)c2)cc(OC)c1OC [Compound C0062]	81.9	134.7	149.9	127.8	310.5	59.8						
CC(=O)c1ccc(S(=O)(=O)N2CCC3(CC2)NC(=O)CN3S(=O)(=O)c2ccc(C(C)=O)cc2)cc1 [Compound C0064]	124.2	159.1	110.4	213.8	349.6	38.1						
CC(=O)c1ccc(S(=O)(=O)N2CCC3(CC2)OC(CN(C)C)CN3S(=O)(=O)c2ccc(C(C)=O)cc2)cc1 (stereo not drawn) [Compound C0065]	127.0	121.3	119.5	198.3	279.5	47.7						
O=S(=O)(c1ccc(Cl)cc1)N1CCC2(CC1)OCCN2S(=O)(=O)c1ccc(Cl)cc1 [Compound C0067]	82.9	81.5	97.1	142.7	179.0	33.5						
O=S(=O)(c1ccc(Br)cc1C(F)(F)F)N1CCC2(CC1)OCCN2S(=O)(=O)c1ccc(Br)cc1C(F)(F)F [Compound C0068]	53.4	83.8	307.8	107.2	263.1	165.9						
O=S(=O)(c1ccc(Br)cc1Br)N1CCC2(CC1)OCCN2S(=O)(=O)c1ccc(Br)cc1Br [Compound C0070]	96.2	95.9	331.0	165.6	210.8	114.2						
O=S(=O)(c1ccc(C(F)(F)F)cc1Br)N1CCC2(CC1)OCCN2S(=O)(=O)c1ccc(C(F)(F)F)cc1Br [Compound C0071]	160.5	161.7	513.3	276.3	355.3	177.1						
O=S(=O)(c1ccc(F)c(F)c1)N1CCC2(CC1)OCCN2S(=O)(=O)c1ccc(F)c(F)c1 [Compound C0072]	100.3	117.9	194.5	172.7	259.1	67.1						
O=S(=O)(c1ccc(Br)c(C(F)(F)F)c1)N1CCC2(CC1)OCCN2S(=O)(=O)c1ccc(Br)c(C(F)(F)F)c1 [Compound C0077]	109.5	104.9	621.4	192.7	265.4	136.7						
O=S(=O)(c1ccc(Br)cc1F)N1CCC2(CC1)OCCN2S(=O)(=O)c1ccc(Br)cc1F [Compound C0078]	82.4	106.4	359.4	138.1	236.6	170.7						
CC(=O)c1ccc(S(=O)(=O)N2CCC3(CC2)OCC(CCCCN(C)C)N3S(=O)(=O)c2ccc(C(C)=O)cc2)cc1 (stereo not drawn) [Compound C0080M]	112.1	92.4	351.8	187.9	205.4	167.1						
CC(=O)c1ccc(S(=O)(=O)N2CCC3(CC2)NCC(=O)N3Cc2ccccc2)cc1 [Compound C0082M]	113.7	107.8	181.1	228.1	338.4	97.6						
CC(=O)c1ccc(S(=O)(=O)N2CCC3(CC2)NC(=O)C(Cc2cnc[nH]2)N3S(=O)(=O)c2ccc(C(C)=O)cc2)cc1 (stereo not drawn) [Compound C0084M]	97.3	114.9	280.4	163.1	255.5	133.2						
CC(=O)c1ccc(S(=O)(=O)N2CCC3(CC2)NC(=O)CN3Cc2ccccc2)cc1 [Compound C0085M]	105.5	78.4	112.6	211.6	246.2	43.7						
CC(=O)c1ccc(S(=O)(=O)N2CC(=O)NC23CCNCC3)cc1 [Compound C0086M]	117.5	104.9	692.3							206.8	265.3	152.3
COc1ccc(S(=O)(=O)N2CCOC23CCN(C)CC3)cc1 [Compound C0088M]	160.5	161.7	513.3				276.3	177.1	355.3			
CCN1CCC2(CC1)OCCN2S(=O)(=O)c1ccc(OC)cc1 [Compound C0089M]	136.3	134.4	237.4				234.5	81.9	295.3			
COc1ccc(S(=O)(=O)N2CCOC23CCN(CC2CC2)CC3)cc1 [Compound C0090M]	137.7	155.2	118.8							237.0	341.0	41.0
